Source: patent publication US7629154B2, “Deinococcus N-acylamino acid racemase and use of preparing L-amino acid” (National Chunghsing University, priority 2005, dated 2009)
Read-outs that look alike come from different tables or passages of the source.

What was measured:
[1] = target: T1, N-acylamino acid racemase (NAAAR) (Deinococcus radiodurans, UniProt Q9RYA6, A252S/A94S/G148D/K158R/P315S); format: biochemical, Deinococcus radiodurans NCHU1003
[2] = test system: L-N-carbamoylase/N-acylamino acid racemase; experiment: Conversion of NCa-D-HPA with enzymes L-N-carbamoylase/N-acylamino acid racemase; format: biochemical; conditions: start 10 mM N-carbamoyl-D-HPA, 50° C., pH 8.0
Excerpt: NCAU (5′-[…]-3′, SEQ ID NO: 5), containing BamHI restriction site; and NCAD (5′-[…]-3′, SEQ ID NO:6), containing HindIII restriction site. The nucleotide sequences encoding the NAAAR and L-N-carbamoylase were amplified from Deinococcus radiodurans NCHU1003 and Bacillus kaustophilus CCRC11223 chromosome, respectively, by PCR technology. The PCR products contained T5 promoter, lac operator and 6×his-tag sequence at the 5′-end and A transcriptional terminator at the 3′-end. The PCR products were cloned in the pQE30 expression vector. The resultant plasmid, pQEarlnca, was transformed into E. coli JM109 for inductive expression.
The reaction mixture containing 10 mM substrate N-carbamoyl-D-HPA, 0.5 mM CoCl2, 50 mM Tris-HCl buffer (pH 8.0), and the enzymes NAAAR and L-N-carbamoylase isolated from induced transformant was incubated at 50° C. for carrying out the conversion. After analysed by the Chiral-HPLC method, it is shown that the co-expressed enzymes could completely convert the original substrate to the final product L-amino acid in 2 to 3 h in one single reaction.

[3] = target: T1, N-acylamino acid racemase (NAAAR); experiment: Substrate selectivity / enzymetic activity of NAAAR by Chiral-HPLC; format: biochemical, Deinococcus radiodurans NCHU1003; conditions: for Specific activity: 10 mM substrate, 0.5 mM CoCl2, 50 mM Tris-HCl pH 8.0, 50° C., 30 min; for Relative activity: percentage of the enzyme activity using N-acetyl-D-Met as substrate
Method: The enzymetic activity was determined by measuring the production profile of conversion product at 215 nm via HPLC method as described by Tokuyama et al (1994). The reaction buffer containing 10 mM substrate, 0.5 mM CoCl2 and appropriate amount of the enzyme in 50 mM Tris-HCl buffer (pH 8.0) was incubated at 50° C. for 30 min, and the reaction was terminated by placing in boiling water for 5 min. The enzymetic activity was then measured by a Chiral-HPLC method. The Km values (mM) were determined from the original velocity data and the changes in NAc-D-HPA or NAc-D-HPA concentration. The unit NAAAR activity was defined as the enzyme amount required for catalysing 1 μmole of product formation under used condition. As described in the following Table 1, the specific activity of NAAAR for substrate N-carbamoyl-D-HPA was 1.31 U/mg, see Table 1.

[4] = compound at 2 mM, percentage of activity with CoCl2, substrate 10 mM N-carbamoyl-D-HPA, 50° C., 30 min

T1 sequence (Q9RYA6 whole entry A94S/G148D/K158R/A252S/P315S): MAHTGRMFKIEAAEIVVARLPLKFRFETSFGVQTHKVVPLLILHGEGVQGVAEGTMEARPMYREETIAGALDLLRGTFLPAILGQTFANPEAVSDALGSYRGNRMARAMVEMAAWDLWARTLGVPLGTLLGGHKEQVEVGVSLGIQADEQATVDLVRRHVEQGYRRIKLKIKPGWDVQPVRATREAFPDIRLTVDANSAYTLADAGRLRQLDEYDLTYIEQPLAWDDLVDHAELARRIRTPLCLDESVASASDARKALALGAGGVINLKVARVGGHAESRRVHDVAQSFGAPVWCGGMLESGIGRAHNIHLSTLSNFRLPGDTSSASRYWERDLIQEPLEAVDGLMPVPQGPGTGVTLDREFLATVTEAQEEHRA

[Ca+2].[Cl-].[Cl-] [CaCl2]
Relative activity [1, 4]: 0%

[Cl-].[Cl-].[Co+2] [CoCl2]
Effect of bivalent metal ion on NAAAR enzymetic activity [1]: improved enzymetic activity
Relative activity [1]: 100%

[Cl][Cu][Cl] [CuCl2]
Relative activity [1, 4]: 0%

O=C(O)CN(CCN(CC(=O)O)CC(=O)O)CC(=O)O [EDTA]
Relative activity ([1]; compound at 10 mM, percentage of activity with CoCl2, substrate 10 mM N-carbamoyl-D-HPA, 50° C., 30 min): 0%

N[C@@H](CCc1ccccc1)C(=O)O [L-HPA, L-homophenylalanine]
Concentration in conversion reaction ([2]; time 0.5 hour): 4.96 mM
Concentration in conversion reaction ([2]; time 1.0 hour): 8.84 mM
Concentration in conversion reaction ([2]; time 2.0 hour): 10 mM

[Cl-].[Cl-].[Mg+2] [MgCl2]
Relative activity [1, 4]: 20.5%

[Cl][Mn][Cl] [MnCl2]
Relative activity [1, 4]: 79.1%
Effect of bivalent metal ion on NAAAR enzymetic activity ([1]; in words): improved enzymetic activity

CC(=O)N[C@H](CCc1ccccc1)C(=O)O [N-acetyl-D-HPA]
Specific activity [3]: 9.17 U/mg
Relative activity [3]: 143.28%

CSCC[C@@H](NC(C)=O)C(=O)O [N-acetyl-D-Met]
Specific activity [3]: 6.40 U/mg
Relative activity [3]: 100%

CC(=O)N[C@H](Cc1ccccc1)C(=O)O [N-acetyl-D-Phe]
Specific activity [3]: 1.98 U/mg
Relative activity [3]: 30.94%

CC(=O)N[C@@H](CCC(N)=O)C(=O)O [N-acetyl-L-Gln]
Specific activity [3]: 0.93 U/mg
Relative activity [3]: 14.53%

CC(=O)N[C@@H](CCc1ccccc1)C(=O)O [N-acetyl-L-HPA]
Specific activity [3]: 11.97 U/mg
Relative activity [3]: 187.03%

CC(=O)N[C@@H](CC(C)C)C(=O)O [N-acetyl-L-Leu]
Specific activity [3]: 0.45 U/mg
Relative activity [3]: 7.03%

CSCC[C@H](NC(C)=O)C(=O)O [N-acetyl-L-Met]
Specific activity [3]: 8.04 U/mg
Relative activity [3]: 125.63%

CC(=O)N[C@@H](Cc1ccccc1)C(=O)O [N-acetyl-L-Phe]
Specific activity [3]: 1.55 U/mg
Relative activity [3]: 24.22%

CC(=O)N[C@@H](Cc1c[nH]c2ccccc12)C(=O)O [N-acetyl-L-Trp]
Specific activity [3]: 0.87 U/mg
Relative activity [3]: 13.13%

[2H]NC(=O)N[C@@H](CCc1ccccc1)C(=O)O [N-carbamoyl-D-HPA]
Specific activity [3]: 1.31 U/mg
Relative activity [3]: 20.46%
Concentration in conversion reaction ([2]; time 0.5 hour): 4.16 mM
Concentration in conversion reaction ([2]; time 1.0 hour): 1.16 mM
Concentration in conversion reaction ([2]; time 2.0 hour): 0 mM

NC(=O)N[C@@H](CCc1ccccc1)C(=O)O [N-carbamoyl-L-HPA]
Specific activity [3]: 1.91 U/mg
Relative activity [3]: 29.84%
Concentration in conversion reaction ([2]; time 0.5 hour): 0.88 mM
Concentration in conversion reaction ([2]; time 1.0 hour): 0 mM
Concentration in conversion reaction ([2]; time 2.0 hour): 0 mM

O=C(CCl)N[C@@H](Cc1ccccc1)C(=O)O [N-chloroacetyl-L-Phe]
Specific activity [3]: 1.16 U/mg
Relative activity [3]: 18.13%

[Cl][Ni][Cl] [NiCl2]
Relative activity [1, 4]: 40.6%
Effect of bivalent metal ion on NAAAR enzymetic activity ([1]; in words): improved enzymetic activity

[Cl-].[Cl-].[Zn+2] [ZnCl2]
Relative activity [1, 4]: 19.7%
